Measured values as given in ChEMBL document CHEMBL3792379, “Synthesis and biological evaluation of aryloxyacetamide derivatives as neuroprotective agents” (2016).
Active and inactive are the calls of the source. The calls are words filed in the database; no cut-off is given here.

Key:
[1] = (§1) Neuroprotective activity against glutamate-induced cell death in rat PC12 cells assessed as cell viability at 10 uM after 24 hrs by MTT assay; format: functional; details: PC-12, 24 h, read-out: Activity
PC-12 [2] = test: Neuroprotective activity against glutamate-induced cell death in rat PC12 cells assessed as cell viability after 24 hrs by MTT assay; format: functional, cell-based
PC-12 [3] = test: Neuroprotective activity against glutamate-induced apoptosis in rat PC12 cells assessed as decrease in procaspase-3 level after 24 hrs by western blot analysis; format: functional, cell-based
PC-12 [4] = test: Neuroprotective activity against glutamate-induced apoptosis in rat PC12 cells after 24 hrs by hoechst 33342 and propidium iodide double staining based fluorescence analysis; format: functional, cell-based
[5] = (§2) Neuroprotective activity against glutamate-induced cell death in rat PC12 cells assessed as cell viability at 1 uM after 24 hrs by MTT assay; format: functional; details: PC-12, 24 h, read-out: Activity
PC-12 [6] = test: Neuroprotective activity against glutamate-induced apoptosis in rat PC12 cells assessed as decrease in caspase-3 level after 24 hrs by western blot analysis; format: functional, cell-based
PC-12 [7] = test: Neuroprotective activity against glutamate-induced apoptosis in rat PC12 cells at 1 uM after 24 hrs by hoechst 33342 and propidium iodide double staining based fluorescence analysis (reference value: 43.97 +/- 2.69%); format: functional
PC-12 [8] = test: Neuroprotective activity against glutamate-induced apoptosis in rat PC12 cells at 0.1 uM after 24 hrs by hoechst 33342 and propidium iodide double staining based fluorescence analysis (reference value: 43.97 +/- 2.69%); format: functional
PC-12 [9] = test: Neuroprotective activity against glutamate-induced apoptosis in rat PC12 cells at 10 uM after 24 hrs by hoechst 33342 and propidium iodide double staining based fluorescence analysis (reference value: 43.97 +/- 2.69%); format: functional
[10] = (§3) Neuroprotective activity against glutamate-induced cell death in rat PC12 cells assessed as cell viability at 0.1 uM after 24 hrs by MTT assay; format: functional; details: PC-12, 24 h, read-out: Activity
PC-12 [11] = test: as §1; format: functional
PC-12 [12] = test: as §2; format: functional
PC-12 [13] = test: as §3; format: functional
PC-12 [14] = test: Neuroprotective activity against glutamate-induced apoptosis in rat PC12 cells assessed as procaspase-3 level at 0.1 to 10 uM after 24 hrs by western blot analysis; format: functional, cell-based
[15] = Neuroprotective activity against glutamate-induced cell death in rat PC12 cells assessed as cell viability at 90 uM after 24 hrs by MTT assay; format: functional; details: PC-12, 24 h, read-out: Activity

Row | SMILES | viability at 10 µM [1] [%] | viability at 1 µM [5] [%] | viability at 0.1 µM [10] [%] | further results
1 | COc1ccccc1OCC(=O)N1CCN(C(c2ccc(F)cc2)c2ccc(F)cc2)CC1 | 79.7 | 45.9 | 32 | Activity (PC-12 [2]): Dose-dependent effect; Activity (PC-12 [3]): Dose-dependent effect; Activity (PC-12 [4]): Dose-dependent effect; Activity (PC-12 [6]): Dose-dependent effect; Activity (PC-12 [7]): 31.04%; Activity (PC-12 [8]): 42.28%; Activity (PC-12 [9]): 19.18%
2 | COc1ccccc1OCC(=O)N1CCN(C(c2ccc(C)cc2)c2ccc(C)cc2)CC1 | – | – | – | Activity (PC-12 [11]): inactive; Activity (PC-12 [12]): inactive; Activity (PC-12 [13]): inactive
3 | Cc1ccc(C(c2ccc(C)cc2)N2CCN(C(=O)COc3ccc(Cl)cc3)CC2)cc1 | 9.2 | 9.14 | 5.81 | –
4 | O=C(COc1ccc2ccccc2c1)N1CCN(C(c2ccc(F)cc2)c2ccc(F)cc2)CC1 | – | – | – | Activity (PC-12 [11]): inactive; Activity (PC-12 [12]): inactive; Activity (PC-12 [13]): inactive
5 | Cc1ccccc1OCC(=O)N1CCN(C(c2ccc(F)cc2)c2ccc(F)cc2)CC1 | 57 | 8.7 | 7.92 | –
6 | COC(=O)c1ccccc1CN1CCN(C(=O)COc2ccc3ccccc3c2)CC1 | 49.5 | 37.4 | 25.6 | Activity (PC-12 [2]): Dose-dependent effect; Activity (PC-12 [3]): Dose-dependent effect; Activity (PC-12 [4]): Dose-dependent effect; Activity (PC-12 [6]): Dose-dependent effect; Activity (PC-12 [7]): 29.27%; Activity (PC-12 [8]): 35.67%; Activity (PC-12 [9]): 21.81%
7 | O=C(COc1ccc(Cl)cc1)N1CCN(C(c2ccc(Br)cc2)c2ccc(Br)cc2)CC1 | 16.7 | 8.01 | 4.22 | –
8 | COc1ccc(C(c2ccc(OC)cc2)N2CCN(C(=O)COc3ccccc3C)CC2)cc1 | 21.2 | 3.75 | 2.45 | –
9 | Cc1ccc(C(c2ccc(C)cc2)N2CCN(C(=O)COc3ccc4ccccc4c3)CC2)cc1 | 10.3 | 5.63 | 4.75 | –
10 | Cc1ccccc1OCC(=O)N1CCN(Cc2ccc(Br)cc2)CC1 | 20.8 | 22.1 | 10.2 | –
11 | O=C(COc1ccc(Br)cc1)N1CCN(C(c2ccc(F)cc2)c2ccc(F)cc2)CC1 | 77.1 | 47.6 | 26.8 | Activity (PC-12 [2]): Dose-dependent effect; Activity (PC-12 [4]): Dose-dependent effect; Activity (PC-12 [14]): inactive; Activity (PC-12 [6]): Dose-dependent effect; Activity (PC-12 [7]): 32.18%; Activity (PC-12 [8]): 41.83%; Activity (PC-12 [9]): 24.65%
12 | CC1=NN(c2ccccc2)C(=O)C1 [EDARAVONE] | – | – | – | viability at 90 µM [15]: 33%
13 | COc1ccccc1OCC(=O)N1CCN(Cc2ccc(Br)cc2)CC1 | 20.8 | 41 | 38 | –
14 | O=C(COc1ccc(Br)cc1)N1CCN(C(c2ccc(Br)cc2)c2ccc(Br)cc2)CC1 | – | – | – | Activity (PC-12 [11]): inactive; Activity (PC-12 [12]): inactive; Activity (PC-12 [13]): inactive
15 | COc1ccc(/C=C/C(=O)N2CCN(C(c3ccc(F)cc3)c3ccc(F)cc3)CC2)cc1 | 77.8 | 49.7 | 71 | –
16 | COC(=O)c1ccccc1CN1CCN(C(=O)COc2ccc(Br)cc2)CC1 | – | – | – | Activity (PC-12 [11]): inactive; Activity (PC-12 [12]): inactive; Activity (PC-12 [13]): inactive
17 | COC(=O)c1ccccc1CN1CCN(C(=O)COc2ccc(C)cc2)CC1 | – | – | – | Activity (PC-12 [11]): inactive; Activity (PC-12 [12]): inactive; Activity (PC-12 [13]): inactive

Row | SMILES | viability at 10 µM [1] [%] | viability at 1 µM [5] [%] | viability at 0.1 µM [10] [%] | further results
18 | COC(=O)c1ccccc1CN1CCN(C(=O)COc2ccc(OC)cc2)CC1 | – | – | – | Activity (PC-12 [11]): inactive; Activity (PC-12 [12]): inactive; Activity (PC-12 [13]): inactive
19 | O=C(COc1ccc(Br)cc1)N1CCN(Cc2ccc(Br)cc2)CC1 | – | – | – | Activity (PC-12 [11]): inactive; Activity (PC-12 [12]): inactive; Activity (PC-12 [13]): inactive
20 | COc1ccc(OCC(=O)N2CCN(C(c3ccc(C)cc3)c3ccc(C)cc3)CC2)cc1 | 47.5 | 42.3 | 21.7 | –
21 | CCOc1ccc(CN2CCN(C(=O)COc3ccccc3C)CC2)cc1 | 28.9 | 30.6 | 35.3 | –
22 | CCOc1ccccc1CN1CCN(C(=O)COc2ccccc2C)CC1 | 8.52 | 11.9 | 53.3 | –
23 | Cc1ccccc1OCC(=O)N1CCN(C(c2ccc(Br)cc2)c2ccc(Br)cc2)CC1 | – | – | – | Activity (PC-12 [11]): inactive; Activity (PC-12 [12]): inactive; Activity (PC-12 [13]): inactive
24 | COC(=O)c1ccccc1CN1CCN(C(=O)COc2ccccc2C)CC1 | 25.1 | 9.55 | 6.39 | –
25 | COC(=O)c1ccccc1CN1CCN(C(=O)COc2ccc(Cl)cc2)CC1 | 6.36 | 5.15 | 39.9 | –
26 | Cc1ccc(C(c2ccc(C)cc2)N2CCN(C(=O)COc3ccccc3C)CC2)cc1 | 11.3 | 4.24 | 3.24 | –
27 | COc1ccc(C(c2ccc(OC)cc2)N2CCN(C(=O)COc3ccc4ccccc4c3)CC2)cc1 | 25.6 | 5.42 | 2.55 | –
28 | COc1ccccc1OCC(=O)N1CCN(C(c2ccc(Br)cc2)c2ccc(Br)cc2)CC1 | 6.67 | 12.8 | 45.5 | –
29 | CCOc1ccccc1CN1CCN(C(=O)COc2ccc3ccccc3c2)CC1 | 59.6 | 45.7 | 29.8 | Activity (PC-12 [2]): Dose-dependent effect; Activity (PC-12 [4]): Dose-dependent effect; Activity (PC-12 [14]): inactive; Activity (PC-12 [6]): Dose-dependent effect; Activity (PC-12 [7]): 23.73%; Activity (PC-12 [8]): 35.09%; Activity (PC-12 [9]): 16.21%
30 | COc1ccc(OCC(=O)N2CCN(C(c3ccc(F)cc3)c3ccc(F)cc3)CC2)cc1 | 80.5 | 5.26 | 3.1 | –
31 | COc1ccc(OCC(=O)N2CCN(C(c3ccc(Br)cc3)c3ccc(Br)cc3)CC2)cc1 | 50.3 | 7.06 | 3.52 | –
32 | COc1ccc(OCC(=O)N2CCN(C(c3ccc(OC)cc3)c3ccc(OC)cc3)CC2)cc1 | 56.7 | 80.7 | 59.4 | –
33 | COC(=O)c1ccccc1CN1CCN(C(=O)COc2ccccc2OC)CC1 | 23.1 | 32.8 | 23.2 | –
34 | O=C(COc1ccc2ccccc2c1)N1CCN(C(c2ccc(Br)cc2)c2ccc(Br)cc2)CC1 | 30.2 | 7.87 | 4.06 | –
